Reference: patent publication US20100190733A1, “Methods of Treating Muscular Dystrophies” (Primus Pharmaceuticals, Inc., priority 2009, published 2010)

Tests used:
Body weight, Example 1 = assay type: in vivo; conditions: WT mice, after 5 weeks daily i.p. treatment, compared to WT mice treated with vehicle
Experimental: (§1) Five-week old mdx and WT mice were treated for 5 weeks with daily 100 μl intraperitoneal injections with either flavocoxid (a mixture of catechin and baicalin) (n=8, 5 mg/kg), methylprednisolone (n=8, 0.75 mg/Kg) or vehicle (n=8, 33% (v/v) dimethylsulphoxide (DMSO) in 0.9% NaCl). At the end of the experiments, animals were anaesthetized with intraperitoneal administration of sodium penthobarbital (80 mg/kg). Blood was then collected by intracardiac puncture and used to analyze creatine kinase (CK) levels. The biceps, quadriceps and extensor digitorum longus (EDL) muscles were removed bilaterally and immediately frozen in liquid nitrogen-cooled isopentane and stored at −80° C. for histological and biochemical evaluations.
Mice were weighed and examined for forelimb strength at baseline and after 5 weeks of treatment. Strength testing consisted of five separate measurements using a grip meter attached to a force transducer that measures peak force generated (Stoelting Co, Wooddale Ill., USA). Briefly, the mouse grabed the trapeze bar as it was pulled backward and the peak pull force in grams was recorded on a display upon release by the animal. The three highest measurements for each animal were averaged to give the strength score. The degree of fatigue was calculated by comparing the first two pulls to the last two pulls. […]

WT and mdx mice [1] = assay: Forelimb strength and fatigue by grip meter, Example 1; assay type: in vivo; conditions: flavocoxid 5 mg/kg, methylprednisolone 0.75 mg/Kg
Experimental: as §1
Mice were weighed and examined for forelimb strength at baseline and after 5 weeks of treatment. Strength testing consisted of five separate measurements using a grip meter attached to a force transducer that measures peak force generated (Stoelting Co, Wooddale Ill., USA). Briefly, the mouse grabed the trapeze bar as it was pulled backward and the peak pull force in grams was recorded on a display upon release by the animal. The three highest measurements for each animal were averaged to give the strength score. The degree of fatigue was calculated by comparing the first two pulls to the last two pulls. The decrement between pulls 1+2 and pulls 4+5 gave the measure of fatigue.

WT and mdx mice [2] = assay: Serum creatine kinase (CK) evaluation, Example 1; assay type: in vivo; conditions: after 5 weeks daily i.p. treatment, mean±SD
Experimental: as §1
Blood samples were centrifuged at 6,000 RPM and the serum stored at −80° C. until the day of analysis. Serum CK was evaluated at 37° C. using a commercially available kit (Randox Laboratories LTD, Crumlin, Co. Antrim U.K). The results were expressed as U/L.

Body weight, Example 2 = assay type: in vivo; conditions: mdx mice, genistein 2 mg/kg/ip daily for 5 weeks vs vehicle
Experimental: (§2) Mdx animals were purchased from Charles River Italy (Calco, Milan, Italy). Animals were 4 weeks old on arrival and were acclimatized for 5 days before the study. At the beginning of the experiment the mice, which were at that point 5 weeks old, weighted about 20-22 grams. The mice were treated daily for 5 weeks with either the phytoestrogen genistein (Sigma, Mo., USA) at a dose of 2 mg/kg/ip or its vehicle (1:3 DMSO: 0.9% NaCl solution).
(§3) Mice were weighed and examined for forelimb strength at baseline and at the end of the experiment. Strength testing consisted of five separate measurements using a grip meter attached to a force transducer that measures the peak force generated (Stoelting Co., Wooddale Ill., USA). Specifically, the mouse grabbed the trapeze bar as it is pulled backward and the peak pull force in grams is recorded on a display. The three highest measurements for each animal were averaged to give the strength score.

mdx mice [3] = assay: Forelimb strength and fatigue by grip meter, Example 2; assay type: in vivo; conditions: genistein 2 mg/kg/ip daily for 5 weeks vs vehicle
Experimental: as §2, §3
The degree of fatigue was calculated by comparing the first two pulls to the last two pulls. The decrease between pulls 1+2 and pulls 4+5 provided the measure of fatigue.

mdx mice [4] = assay: Serum creatine kinase (CK) evaluation, Example 2; assay type: in vivo; conditions: genistein 2 mg/kg/ip daily for 5 weeks vs vehicle
Experimental: as §2
Blood samples were centrifuged at 6000 g and the serum was stored at −80° C. until the day of analysis. Serum CK was evaluated at 37° C. using a commercially available kit (Randox Laboratories LTD, Antrim, UK). The results are expressed as U/L.

mdx mice [5] = assay: Histological studies of biceps muscle, Example 2; assay type: in vivo; conditions: genistein 2 mg/kg/ip daily for 5 weeks vs vehicle
Experimental: as §2
Transverse cryostat sections 10 μm thick were obtained from the midpoint of the biceps and TA muscle body. The whole muscle cross sections (corresponding to a mean area of 2.10 mm^2 in biceps and 2.25 mm^2 in TA) were stained with hematoxylin-eosin and were examined by a blinded observer using the AxioVision 2.05 image analysis system equipped with an Axiocam camera scanner (Zeiss, Munchen, Germany). The following four areas with patchy distribution were recognized: 1) normal fibers identified by the presence of peripheral nuclei; 2) necrotic fibers identified by pale cytoplasm and phagocytosis; 3) regenerating fibers identified by small size, central nuclei with/without basophilic cytoplasm; 4) centrally nucleated fibers identified by normal size but with central nuclei. The area occupied by normal fibers, necrotic fibers, regenerating fibers, or centrally nucleated fibers was expressed as a percentage of the area of the whole muscle cross section.

mdx mice [6] = assay: Immunohistochemistry of biceps (myogenin, dMHC), Example 2; assay type: in vivo; conditions: genistein 2 mg/kg/ip daily for 5 weeks vs vehicle
NF-κB = NF-κB activation (EMSA) in skeletal muscle, Example 2; assay type: in vivo; conditions: mdx mice skeletal muscle, genistein 2 mg/kg/ip daily for 5 weeks vs vehicle
Experimental: as §2
Isolation of nuclear proteins in approximately 50 mg of frozen skeletal muscle tissue was performed according to recently detailed method (See ref 15 below). Twenty micrograms of nuclear extract were incubated for 30 min at room temperature with 50 fmol of biotin-end-labeled 45-mer double-strand NF-κB oligonucleotide from the HIV long terminal repeat, 5-[…] GGCGTGGG-3 containing 2(underlined) NF-κB binding sites. Both complimentary oligos were end-labeled separately and then annealed prior to use. […] The results were expressed as relative integrated intensity compared with normal controls, considering exposure time, background levels and known protein concentration of an Epstein Barr virus nuclear antigen-1 extract, which was used as EMSA control.

[7] = tested on: Extensor digitorum longus muscles (EDL) of mdx mice; assay: Electrophysiological studies of isolated EDL muscle, Example 2; assay type: in vivo; conditions: genistein 2 mg/kg/ip daily for 5 weeks vs vehicle
Experimental: as §2
Extensor digitorum longus muscles (EDL) were vertically mounted in a temperature controlled (30°) chamber containing Krebs Ringer bicarbonate buffer (Sigma k4002) and continuously gassed with a mixture of 95% O2 and 5% CO2. One end of the muscle was linked to a fixed clamp while the other end was connected to the lever-arm of an Aurora Scientific Instruments 300B actuator/transducer system using a nylon wire. […] For each experiment, the initial muscle length was adjusted to the length (L0) which produced the highest twitch force. The optimal fiber length (Lf) was determined by multiplying the value of L0 for the fiber length by the muscle length ratio (0.44 for the EDL and 0.71 for soleus). The muscle cross-sectional area (CSA) was determined for the EDL and soleus by dividing the muscle mass (m) by the product of the Lf and the density of mammalian skeletal muscle (1.06 mg/mm^3).
In order to measure force generation, the muscle was initially stimulated with two 0.5 ms single pulses (with a rest time of 150 s) to measure twitch force, twitch force/cross sectional area (CSA), and contraction time (the time that the isolated muscle needs to reach the peak force after delivery of a single electrical pulse).
In order to measure high-stress eccentric contractions, the muscle was stimulated with five tetanic stimulations (train of 0.1 ms pulses delivered at 180 Hz, for 0.6 s) to evaluate the maximum isometric force (and maximum force/cross sectional area (CSA)) and the decline in maximal isometric force. The latter was measured by dividing the force value at the last stimulation (F5) by the force value at the first stimulation (F1), and used as a index of myofiber injury caused by high-stress contractions.

mdx mice [8] = conditions: previous studies (Ref. 38 and 39); cited from earlier work
mdx mice [9] = conditions: previous studies (Ref. 36-37); cited from earlier work
[10] = tested on: muscle regeneration after traumatic injury; conditions: systemic administration (Ref. 21); cited from earlier work
[11] = end of 5 weeks daily i.p. treatment

In the case of C[C@H]1C[C@@H]2[C@H]([C@@H](O)C[C@@]3(C)[C@H]2CC[C@]3(O)C(=O)CO)[C@@]2(C)C=CC(=O)C=C12 [methylprednisolone], the body weight (Body weight, Example 1) is reported as “increase in body weight”, the “fatigue levels compared to vehicle-treated mdx” value (WT and mdx mice [1]; after 5 weeks daily i.p. treatment) is reported as −13% and the “forelimb strength compared to vehicle-treated mdx mice” value (WT and mdx mice [1]; [11]) is reported as “+30%”. For the same compound, the “strength normalized to weight compared to vehicle-treated mdx mice” value (WT and mdx mice [1]; [11]) was “+27%”, the “serum CK levels” value (WT and mdx mice [2]; WT mice) was 365±28 U/L and the “serum CK levels” value (WT and mdx mice [2]; mdx mice) was 1737±103 U/L.
In the case of O=c1c(-c2ccc(O)cc2)coc2cc(O)cc(O)c12 [genistein, 5,7-Dihydroxy-3-(4-hydroxyphenyl)chromen-4-one], the body weight (Body weight, Example 2) is reported as “not significantly different”, the forelimb strength (mdx mice [3]) is reported as “significantly augmented” and the level of fatigue (mdx mice [3]) is reported as “slightly lower”. The “strength normalized to weight” value (mdx mice [3]) was “higher”, the CK levels (mdx mice [4]) was “statistically significant reduction” and the “necrosis in the biceps” value (mdx mice [5]) was “decreased”. For the same compound, the “percentage of centrally nucleated fibers in the biceps” value (mdx mice [5]) was “not found to modify”, the “percentage of normal muscular area in the biceps” value (mdx mice [5]) was “not found to modify” and the “percentage of regenerating fibers in the biceps” value (mdx mice [5]) was “increased”. The “myogenin expression in the nuclei of muscles” value (mdx mice [6]) was “significantly increased”, the “number of dMHC positive fibers” value (mdx mice [6]) was “not found to modify” and the “number of myogenin positive satellite cells (SC)” value (mdx mice [6]) was “not found to modify”. For the same compound, the NF-κB activation (NF-κB) was “significantly decreased”, the contraction time [7] was “not found to modify” and the “decline of maximal isometric force (F5/F1 after five tetanic stimulations)” value [7] was “reduced”. For the same compound, the “maximum force/CSA” value [7] was “not found to modify”, the “twice force/CSA” value [7] was “not found to modify” and the twitch force [7] was “not found to modify”.
For O=C(O[C@@H]1Cc2c(O)cc(O)cc2O[C@@H]1c1cc(O)c(O)c(O)c1)c1cc(O)c(O)c(O)c1 [epigallocatechin gallate], the “effect on mdx mice” value (mdx mice [8]) is listed as “beneficial effect”.
For CC(=O)SCCC1Cc2c(C)c(OC(=O)CCC(=O)O)c(C)c(C)c2O1 (racemic) [IRFI-042, (±)-5-emisuccinoyl-2-[2-(acetylthio)ethyl]-2,3-dihydro-4,6,7-trimethylbenzofuran], the “effects on functional, biochemical and morphological parameters of mdx mice muscle fibers” value (mdx mice [9]) is given as “beneficial effects”.
In the case of COc1cc(/C=C/C(=O)CC(=O)/C=C/c2ccc(O)c(OC)c2)ccc1O [curcumin], the “muscle regeneration after traumatic injury” value [10] is listed as “stimulates muscle regeneration”.
For S=C(S)N1CCCC1 [pyrrolidine dithiocarbamate], the “effects on functional, biochemical and morphological parameters of mdx mice muscle fibers” value (mdx mice [9]) is listed as “beneficial effects”.
